Laboratory results taken from patent US20260209135A1, “METHOD OF FORTIFYING FERTILIZER WITH LIPO-CHITOOLIGOSACCHARIDE (LCO)” (priority 2022, published 2026).

Key:
Corn [1] = assay: Corn microplot trial, granular fertilizer fortified with LCO (Example 5); format: in vivo, Maize; conditions: LCO at 22.5 ml per bag of GF, over control
Procedure: Maize seeds were sown directly to microplot on 29 Oct. 2020 and the experiment was completed by third week of January 2021. Experiment was conducted in 3*3 microplots in 7 replications for treatment and 6 replications for control, microplots were distributed in a completed random block experimental design. Treatment was imposed by fertigation at 2 times point with doses divided in to 50% each first at time of transplanting and second one at 40 days after transplanting (Table 11). Plants were grown by following the standard package of practices developed by the university of Agricultural Science Bangalore, for further details information have a look at the crop calendar (Table 11). [table] Treatment was in a complete random block design, with 7 replications per treatment and 6 replication per control. Following parameter/observation WAS recorded: • 1. Plant number per plot • 2. Plant height • 3. Chlorophyll content • 4. Stem girth • 5. Cob number • 6. Cob dry weight • 7. Yield/grain weight per plot or plant Data were analysed with JMP software by comparing means using all pairs Tukey HSD. Error bars shown in graphs are SD. Bar graphs represent the mean. Different alphabet indicates significant difference between the treatment. […] FIG. 8: Plant height were measured at three different time point viz 33, 53 and 138 days after sowing, data represented here are means and error bar represent standard deviation. NS denotes no significant difference between the treatment.

[2] = system: finger millet (Eleusine coracana) seedlings; assay: Ragi seedlings treated with LCO: root hairs and root length; format: in vivo
Description: FIG. 27 represents a graph showing number of root hairs in seedlings of ragi @ 3 DAS: untreated control (UTC) and treated with LCO.
(§1) FIG. 29 represents a graph showing root length measured @ 4 DAS in ragi and rice seedlings: untreated control and treated with LCO.

Cabbage [3] = assay: Cabbage microplot trial, granular fertilizer fortified with LCO (Example 4); format: in vivo, Cabbage (Enza zaden variety)
[4] = system: Green gram (Vigna radiata); assay: Green gram seedlings treated with LCO: root length; format: in vivo; conditions: vs control seedlings without LCO, FIG. 28
Description: (§2) FIG. 28 represents a graph showing root length measured @ 10 DAS in beans, horse gram and green gram seedlings: untreated control and treated with LCO.

[5] = system: Horse gram (Macrotyloma uniflorum); assay: Horse gram seedlings treated with LCO: root length; format: in vivo; conditions: vs control seedlings without LCO, FIG. 28
Description: as §2

Corn [6] = assay: Corn field study, bulk granular fertilizer with LCO (Example 8); format: in vivo; conditions: bulk fertilizer combined with LCO compared to fertilizer alone
Procedure: The field experiment was conducted at an agricultural farm in Bangalore in Rabi season of 2020. The study was conducted as randomized complete block design with 7 treatments with 9 replications and each plot measured about 9 m^2 in area. Hybrid corn seeds of a popular brand was used for the trial. Different grades of Bulk fertilizers are available in market generally sold in 50 kg packages. The N:P:K-19:19:19 grade bulk fertilizer was used for the current study. Bulk fertilizer was combined with 3 doses of LCO at the rate of 11.25 ml, 22.5 ml, and 33.75 ml per 50 kg bag of fertilizer. The application dose was calculated based on the crop and standard fertilizer recommendation to the select crop. About 50% quantity of the treatments were applied to the crop as basal application at the time of planting and rest of the quantity for each treatment was applied at 40 DAS. [table] [table] The trial was harvested in January 2021, when the cobs were fully matured. The yield parameters such as number of cobs per plot and cob yield per plot were recorded. The number of cobs per plot was normalized based on plant density per plot. The cobs of each plot were threshed separately and grain weight per plot was recorded and interpreted as Kg per plot normalized to number of plants per plot.

Cabbage [7] = assay: Cabbage field study, bulk granular fertilizer with LCO (Example 7); format: in vivo; conditions: bulk fertilizer combined with LCO compared to fertilizer alone
Procedure: The field experiment was conducted at an agricultural farm in Bangalore in Rabi season of 2020. The study was conducted in randomized complete block design with 7 treatments and 7 replications per treatment with each plot measuring approximately 9 m^2 in area (Table-12 & 13). Cabbage seedlings of a popular variety was used for the trial. Different grades of bulk fertilizers were available in market generally sold in 50 kg packages. The N:P:K-19:19:19 grade bulk fertilizer was used for the current study. Treatments of LCO fortified bulk fertilizer with 3 doses of LCO 11.25 ml, 22.5 ml, and 33.75 ml were formulated per 50 kg bag of fertilizer. The application dose was calculated based on the crop and standard fertilizer recommendation to the select crop. About 50% of calculated quantity of fertilizers were applied to the crop on a per plot basis as basal application at the time of planting and rest of the quantity of each treatment was applied at 40 days after transplanting (DAT). [table] […] The yield per plot was measured by weighing all the heads harvested from each plot. The vertical and horizontal diameter of the head was measured using a measuring tape and the volume of each cabbage head was calculated by the following formula V=4/3·π·(a)^2·b • Where, • V=Volume of the head • a=Horizontal diameter of the head • b=Vertical diameter of the head

Capsicum = Capsicum net house trial, WSF fortified with LCO (Example 2); format: in vivo, Capsicum (Diana variety); conditions: fortification of WSF with LCO vs WSF only
[8] = system: White French Beans seedlings; assay: Seedling bioassay in tubes, WSF (19:19:19) fortified with LCO (Example 3); format: in vivo; conditions: 10 days
Procedure: [table] Locally available beans variety were used for the study. Experiment was conducted in 50 ml falcon tube filled with soilrite which acts as growing substrate. Treatment solution as given in the table were prepared in demineralised water and 10 ml of respective solution were applied to each tube after sowing (2.5 cm depth). Fortified, unfortified WSF and LCO were tested at 2 doses along with absolute control. Subsequently, the seedlings were maintained under […] (200 […], 12 hrs light and dark), ambient temperature of 25 degree Celsius. The tubes were incubated for 10 days and irrigated with water as and when required. After 10 days, the experiment was terminated and the plants were phenotyped for recording the traits vz Hypocotyl length, epicotyl length, shoot length and root length.

[9] = system: Beans (Phaseolus vulgaris L); assay: Beans seedlings treated with LCO: root length; format: in vivo; conditions: vs control seedlings without LCO, FIG. 28
Description: as §2

Rice (Oryza sativa) = assay: Rice seedlings treated with LCO: root length; format: in vivo; conditions: vs control seedlings without LCO, FIG. 29
Description: as §1

Corn [10] = assay: Corn pot study, LCO and urease inhibitor fortified urea and WSF (Example 6); format: in vivo; conditions: urea study
Procedure: NBPT (N-(n-butyl) thiophosphoric triamide) was suspended in propylene glycol (PG) and dimethyl sulphoxide (DMSO) in the ratio of 20:50:30. In the current experiment two different doses of NBPT was fortified to the fertilizers, low dose consisting of 400 ppm and high dose 800 ppm was fortified per Kg of fertilizer.
The fortifying mixture consists of 0.7 ml of LCO (1.90e-5) and 2 ml of NBPT (400 ppm) was fortified to 1 Kg of fertilizer. Whereas another fortifying mixture consists of 0.7 ml of LCO (1.90e-5) and 4 ml of NBPT (800 ppm) was fortified to 1 Kg of fertilizer. After fortification samples were taken for conducting pot trails.
A pot study was conducted for evaluating LCO and Urease inhibitor fortified Urea and WSF on an experimental crop. Corn was selected as a subject crop for the pot study. The experiment consists of 13 treatments as listed below. The pot study is done in pots of 2 Kg soil capacity. The experiment duration is 20 days.
• 1. Untreated Control • 2. WSF • 3. WSF+LCO • 4. WSF+LCO+UI (Low-400 ppm) • 5. […]
From the onset of the experiment plant height and chlorophyll was measured at every 10th, 15th, and 20th day after sowing. Plant height and dry biomass of leaves and root were measured manually using scales, whereas chlorophyll was measured using chlorophyll meter. Leaf area was calculated based on the dry weight method, by developing a dry-weight weight versus leaf area curve for corn leaf samples of known area.
Available nitrogen from the soil was estimated from the soil samples using wet aggregate analysis method of estimation. […] The available nitrogen is expressed as kg/ha.
Total nitrogen as percent was determined from the dried plant samples using Kjeldahl method of estimation. The total nitrogen in plant is expressed as percentage. Nitrogen uptake was calculated by multiplying the shoot biomass with the nutrient concentration. Nitrogen use efficiency (NUE) is determined as the percent of the applied nitrogen that was taken up by the plants.
From the onset of the experiment plant height and chlorophyll was measured every 5 days interval starting from 10th DAS. […]

Cabbage [11] = assay: Cabbage microplot trial, WSF fortified with LCO (Example 1); format: in vivo, Cabbage (Enza zaden variety); conditions: average, vs control (only WSF)
Procedure: Cabbage seedling (Enza zaden variety) were transplanted on 16 Oct. 2020 and the experiment was completed by end of December 2020. Experiment was conducted in 3*3 microplots in 9 replications for treatment and control, microplots were distributed in a completed random block experimental design. Treatment was imposed by fertigation at 3 times point with doses divided in to 22, 39 and 39% respectively (Table 6). Plants were grown by following the standard package of practices developed by the university of Agricultural Science Bangalore. [table] Treatment was in a complete random block design, with 9 replications per treatment. Following parameter/observation was recorded: • 1. Plant number per plot • 2. Fruit weight per plot • 3. Fruit weight per plant • 4. Vertical circumference • 5. Radial circumference Data were analysed with JMP software by comparing means using all pairs Tukey HSD. Error bars shown in graphs are SD. Bar graphs represent the mean. Different alphabet indicates significant difference between the treatment.

[12] = at low pH; cited from earlier work

For `CCCCCC/C=C\CCCCCCCCCC(=O)N[C@H]1[C@H](O[C@H]2[C@H](O)[C@@H](NC(C)=O)[C@H](O[C@H]3[C@@H](O)[C@@H](NC(C)=O)[C@H](O[C@H]4[C@H](O)[C@@H](NC(C)=O)[C@H](O[C@H]([C@H](O)[C@H](C=O)NC(C)=O)[C@H](O)CO)O[C@@H]4CO)O[C@@H]3O)O[C@@H]2CO)O[C@H](CO)[C@@H](O)[C@@H]1O` [LCO, Lipo-chitooligosaccharide], the “increase in cob weight per plot” value (Corn [1]) was at most 10, the “increase in grain weight per plot” value (Corn [1]) was at most 9 and the “increase in number of cobs per plant” value (Corn [1]) was at most 18%. The “number of root hairs, result in words” value ([2]; 3 days after treatment, vs untreated control, FIG. 27) was “increase root hairs”, the “root length, result in words” value ([2]; vs control seedlings without LCO, FIG. 29) was “increases the length of roots” and the “cabbage circumference, result in words” value (Cabbage [3]; GF fortified with LCO vs control (only GF)) was “marginal increase in circumference of cabbage heads”. The increase in circumference (Cabbage [3]; cabbage, GF 19:19:19 with LCO with or without proxel, average, vs control (only GF)) was 0.4%, the “root length, result in words” value [4] was “increases the length of roots” and the “root length, result in words” value [5] was “increases the length of roots”. The “average number of cobs per plot, result in words” value (Corn [6]) was “enhanced”, the “grain yield per plot, result in words” value (Corn [6]) was “enhanced” and the “average volume of cabbage heads, result in words” value (Cabbage [7]) was “enhanced average volume of cabbage heads”. For the same compound, the “capsicum yield, result in words” value (Capsicum) was “increase in yield, even though there is no statistically significant difference”, the Epicotyl length ([8]; concentration 8.75E−12 %) was 1.75 cm and the Hypocotyl length ([8]; concentration 8.75E−12 %) was 9 cm. The Root length ([8]; concentration 8.75E−12 %) was 12.12 cm, the “Shoot length (hypocotyl + Epicotyl length)” value ([8]; concentration 8.75E−12 %) was 10.77 cm and the Epicotyl length ([8]; concentration 8.75E−14 %) was 1.87 cm. The Hypocotyl length ([8]; concentration 8.75E−14 %) was 8.3 cm, the Root length ([8]; concentration 8.75E−14 %) was 13.41 cm and the “Shoot length (hypocotyl + Epicotyl length)” value ([8]; concentration 8.75E−14 %) was 10.26 cm. For the same compound, the “root length, result in words” value [9] was “increases the length of roots”, the “root length, result in words” value (Rice (Oryza sativa)) was “increases the length of roots” and the “total nitrogen (leaf nitrogen content), result in words” value (Corn [10]; 20 days old corn seedlings, Kjeldahl, FIG. 22) was “much higher than urea+UI at 400 ppm and equal to urea+UI at 800 ppm”. For the same compound, the “leaf dry weight, result in words” value (Corn [10]; corn seedlings, 20 DAS, FIG. 18) was “better than WSF alone”, the “leaf area, result in words” value (Corn [10]; corn seedlings, 20 DAS, FIG. 20) was “better than WSF alone” and the increase in yield (Cabbage [11]; cabbage yield (kg/plot), LCO with or without proxel) was 7%. For the same compound, the increase in circumference (Cabbage [11]; cabbage, WSF 19:19:19 with LCO with or without proxel) was 2%.

For `CCCCNP(N)(N)=S` [NBPT, N-(n-butyl) thiophosphoric triamide], the “time within which decayed” value [12] is given as at most 24 h.
